# In patent US20140193827A1 (TEVA PHARMACEUTICAL INDUSTRIES, LTD., priority 2013, published 2014):
# Tested on: GA-primed murine splenocytes
# Experiment: Tolerance method for assessing process variability
substance,measurement,setting,value
glatiramer acetate [GA],AVG expression IRGB10,probe ILMN_2534151,9.691
same,AVG expression LOC624610,probe ILMN_2537948,8.96
same,AVG expression LOC666559,probe ILMN_2540103,10.7199
same,AVG expression AUH,probe ILMN_2543417,8.451
same,AVG expression HIPK2,probe ILMN_2545445,7.332
same,AVG expression GNG12,probe ILMN_2546272,9.731
same,AVG expression 4930426D05RIK,probe ILMN_2548681,7.1
same,AVG expression A130093I21RIK,probe ILMN_2553041,7.932
same,AVG expression A630006E02RIK,probe ILMN_2560567,9.937
same,AVG expression NDR3,probe ILMN_2571414,6.289
same,AVG expression GAD1,probe ILMN_2573826,6.891
same,AVG expression B930094H08R1K,probe ILMN_2578341,6.497
same,AVG expression D530007E13RIK,probe ILMN_2581681,8.386
same,AVG expression IL8RA,probe ILMN_2588216,6.682
same,AVG expression PLTP,probe ILMN_2589401,7.226
same,AVG expression IL27RA,probe ILMN_2591156,8.583
same,AVG expression BC021614,probe ILMN_2591342,7.519
same,AVG expression QPRT,probe ILMN_2591754,7.245
same,AVG expression genericLYRP1,probe ILMN_2592486,7.785
same,AVG expression SCG5,probe ILMN_2592953,6.961
same,AVG expression DOCK10,probe ILMN_2593143,11.3
same,AVG expression IGTP,probe ILMN_2593554,12.78
same,AVG expression KCNK13,probe ILMN_2593787,6.48
same,AVG expression NSDHL,probe ILMN_2594521,8.078
same,AVG expression NSDHL,probe ILMN_2594525,8.365
same,AVG expression LOC100046232,probe ILMN_2595732,11.55
same,AVG expression RGS1,probe ILMN_2596596,8.683
same,AVG expression SLC44A2,probe ILMN_2599719,11.36
same,AVG expression MPO,probe ILMN_2600421,7.594
same,AVG expression OVGP1,probe ILMN_2600928,6.54
same,AVG expression A130092J06RIK,probe ILMN_2601453,10.81
same,AVG expression CREM,probe ILMN_2602899,7.714
same,AVG expression KLF2,probe ILMN_2604029,11.34
same,AVG expression RANBP10,probe ILMN_2605453,9.654
same,AVG expression AI646023,probe ILMN_2605858,6.049
same,AVG expression AGFG1,probe ILMN_2606072,9.007
same,AVG expression PDLIM4,probe ILMN_2606162,9.727
same,AVG expression ACOT7,probe ILMN_2606180,9.205
same,AVG expression CMAH,probe ILMN_2606825,7.634
same,AVG expression CHI3L1,probe ILMN_2609813,9.339
same,AVG expression IFT172,probe ILMN_2611450,8.856
same,AVG expression SLC25A19,probe ILMN_2611532,9.008
same,AVG expression SERPINB6B,probe ILMN_2611755,8.188
same,AVG expression ARHGEF18,probe ILMN_2612125,10.09
same,AVG expression LSS,probe ILMN_2614161,9.397
same,AVG expression B3GNT8,probe ILMN_2614889,8.954
same,AVG expression DPP4,probe ILMN_2615096,9.69
same,AVG expression CHAC1,probe ILMN_2617468,8.051
same,AVG expression C330008K14RIK,probe ILMN_2618148,10.14
same,AVG expression SLC2A6,probe ILMN_2618918,10.76
same,AVG expression LGALS1,probe ILMN_2619107,10.71
same,AVG expression ERAF,probe ILMN_2619200,8.714
same,AVG expression PRNP,probe ILMN_2619316,9.719
same,AVG expression ATF3,probe ILMN_2619408,6.791
same,AVG expression RGS1,probe ILMN_2625377,9.769
same,AVG expression ACSS1,probe ILMN_2628174,10.26
same,AVG expression SOCS2,probe ILMN_2628178,9.548
same,AVG expression ASAH3L,probe ILMN_2629112,6.995
same,AVG expression CPM,probe ILMN_2629191,9.17
same,AVG expression PPAP2B,probe ILMN_2630993,7.507
same,AVG expression TMEM71,probe ILMN_2631610,6.536
same,AVG expression CTLA4,probe ILMN_2631752,8.62
same,AVG expression ACOT7,probe ILMN_2632264,11.36
same,AVG expression SOCS1,probe ILMN_2634796,7.681
same,AVG expression IGH-VJ558,probe ILMN_2635272,13.22
same,AVG expression AXUD1,probe ILMN_2636403,10.85
same,AVG expression PLA2G12A,probe ILMN_2636536,9.884
same,AVG expression SLAMF7,probe ILMN_2638491,8.628
same,AVG expression HSPD1,probe ILMN_2639036,9.439
same,AVG expression AK2,probe ILMN_2641360,10.39
same,AVG expression GTF2I,probe ILMN_2642462,11.52
same,AVG expression EMP1,probe ILMN_2642913,7.96
same,AVG expression ASNS,probe ILMN_2643513,9.742
same,AVG expression THY1,probe ILMN_2644350,11.24
same,AVG expression MVD,probe ILMN_2645275,9.423
same,AVG expression SAMSN1,probe ILMN_2646322,11.87
same,AVG expression JUN,probe ILMN_2646625,8.291
same,AVG expression CENTD1,probe ILMN_2646891,10.77
same,AVG expression SIGLECG,probe ILMN_2648454,9.552
same,AVG expression GPNMB,probe ILMN_2648669,7.401
same,AVG expression MAN2A2,probe ILMN_2650255,6.819
same,AVG expression ARHGAP9,probe ILMN_2650739,9.141
same,AVG expression SLC12A7,probe ILMN_2650953,6.744
same,AVG expression genericK1,probe ILMN_2651886,11.36
same,AVG expression LRG1,probe ILMN_2652500,6.12
same,AVG expression IFI47,probe ILMN_2652857,11.72
same,AVG expression SESN1,probe ILMN_2654074,10.45
same,AVG expression MYO6,probe ILMN_2656854,8.468
same,AVG expression IFITM3,probe ILMN_2658501,11.43
same,AVG expression TG,probe ILMN_2658878,7.479
same,AVG expression DGKA,probe ILMN_2658961,11.07
same,AVG expression IL7R,probe ILMN_2659739,6.443
same,AVG expression ACOT7,probe ILMN_2660182,8.55
same,AVG expression ST6GALNAC4,probe ILMN_2660837,8.481
same,AVG expression SCML4,probe ILMN_2661185,8.584
same,AVG expression RAB35,probe ILMN_2662097,11.43
same,AVG expression LMNA,probe ILMN_2662387,8.27
same,AVG expression SLAMF9,probe ILMN_2663249,8.243
same,AVG expression EPHX1,probe ILMN_2664224,9.837
same,AVG expression 3110013H01RIK,probe ILMN_2664726,8.045
same,AVG expression RIN3,probe ILMN_2665545,9.015
same,AVG expression HEMK1,probe ILMN_2666272,9.174
same,AVG expression PRG4,probe ILMN_2668333,5.989
same,AVG expression HP,probe ILMN_2668509,7.287
same,AVG expression HP,probe ILMN_2668510,7.507
same,AVG expression CTSA,probe ILMN_2669714,9.205
same,AVG expression KIF1B,probe ILMN_2670778,8.422
same,AVG expression PFKP,probe ILMN_2673233,8.097
same,AVG expression 2310047A01RIK,probe ILMN_2675922,7.606
same,AVG expression GRIFIN,probe ILMN_2676543,6.233
same,AVG expression RNF144A,probe ILMN_2678127,7.59
same,AVG expression MNS1,probe ILMN_2678431,8.22
same,AVG expression DUSP10,probe ILMN_2678724,8.26
same,AVG expression RASGRP2,probe ILMN_2678726,6.734
same,AVG expression IL7R,probe ILMN_2680827,8.445
same,AVG expression BCL2,probe ILMN_2682162,8.675
same,AVG expression NALP6,probe ILMN_2684600,6.205
same,AVG expression HMHA1,probe ILMN_2685023,11.42
same,AVG expression CCR5,probe ILMN_2685392,7.052
same,AVG expression CCR5,probe ILMN_2685393,7.202
same,AVG expression IFNG,probe ILMN_2685712,11.16
same,AVG expression PRM1,probe ILMN_2687652,6.849
same,AVG expression MCOLN2,probe ILMN_2689401,7.5921
same,AVG expression PKIB,probe ILMN_2690241,7.745
same,AVG expression JAKMIP1,probe ILMN_2690460,9.597
same,AVG expression KLHL14,probe ILMN_2691014,6.305
same,AVG expression 9330186A19RIK,probe ILMN_2692554,6.749
same,AVG expression TGM2,probe ILMN_2692615,8.055
same,AVG expression ERO1LB,probe ILMN_2692960,10.32
same,AVG expression CCDC125,probe ILMN_2693679,7.065
same,AVG expression PNPLA7,probe ILMN_2695047,7.637
same,AVG expression KIFC2,probe ILMN_2695158,6.733
same,AVG expression PHF11,probe ILMN_2696491,9.238
same,AVG expression PHF11,probe ILMN_2696492,9.454
same,AVG expression MSCP,probe ILMN_2696609,8.264
same,AVG expression SLC25A37,probe ILMN_2696610,8.278
same,AVG expression CD3D,probe ILMN_2697415,11.45
same,AVG expression HIST1H3H,probe ILMN_2698519,8.014
same,AVG expression RGS10,probe ILMN_2699531,9.937
same,AVG expression ITGAE,probe ILMN_2699898,7.502
same,AVG expression CCND2,probe ILMN_2700168,10.82
same,AVG expression DENND5B,probe ILMN_2700354,7.911
same,AVG expression IBRDC3,probe ILMN_2700689,9.29
same,AVG expression LGALS7,probe ILMN_2703182,6.931
same,AVG expression STAC2,probe ILMN_2703563,6.876
same,AVG expression FCRLA,probe ILMN_2703829,11.55
same,AVG expression LIMD2,probe ILMN_2705878,8.037
same,AVG expression SYNGR2,probe ILMN_2706231,11.42
same,AVG expression SYNGR2,probe ILMN_2706232,11.09
same,AVG expression LOC100046608,probe ILMN_2706514,8.612
same,AVG expression GPR83,probe ILMN_2707941,9.205
same,AVG expression 5100A8,probe ILMN_2710905,12.62
same,AVG expression IRGM1,probe ILMN_2711172,7.157
same,AVG expression LOC100047619,probe ILMN_2711948,10.95
same,AVG expression TIMP2,probe ILMN_2712867,6.749
same,AVG expression CHI3L3,probe ILMN_2712986,7.589
same,AVG expression SDC3,probe ILMN_2715042,9.146
same,AVG expression SLC12A6,probe ILMN_2716511,9.952
same,AVG expression MAPK11,probe ILMN_2716622,8.853
same,AVG expression RGL1,probe ILMN_2717176,7.561
same,AVG expression TCF7,probe ILMN_2717975,8.216
same,AVG expression CISH,probe ILMN_2718330,11.35
same,AVG expression SLAMF1,probe ILMN_2721571,9.069
same,AVG expression CD3G,probe ILMN_2722784,10.75
same,AVG expression CCR8,probe ILMN_2724465,6.962
same,AVG expression MAPK12,probe ILMN_2724570,6.86
same,AVG expression IL2,probe ILMN_2725259,7.49
same,AVG expression NSDHL,probe ILMN_2725402,8.035
same,AVG expression CD9,probe ILMN_2725414,8.904
same,AVG expression SYTL3,probe ILMN_2725448,7.03
same,AVG expression SERPINA3G,probe ILMN_2725927,13.9
same,AVG expression EN2,probe ILMN_2726471,6.583
same,AVG expression B4GALNT1,probe ILMN_2728270,10.26
same,AVG expression 5830431A10R1K,probe ILMN_2729252,7.881
same,AVG expression HIST1H3D,probe ILMN_2729958,9.844
